In ChEMBL document CHEMBL1128334, “X-ray crystal structure, partitioning behavior, and molecular modeling study of piracetam-type nootropics: insights into the pharmacophore” (J Med Chem, 1995):

Test: Partition coefficient (logP)
Format: physicochemical
Conditions: octanol/water

First: O=C1CC2C(=O)NCC2CN1 (stereo in doubt; 2)
Second: CCOC(=O)C1CNC(=O)CC1C(=O)OCC (stereo in doubt; 6)
The logP of the first is lower: -2.11 for the first, -0.03 for the second.

First: O=C1CC2C(=O)NCC2CN1 (stereo in doubt; 3)
Second: CCOC(=O)C1CNC(=O)CC1C(=O)OCC (stereo in doubt; 7)
The logP of the first is lower: -2 for the first, 0.17 for the second.

Same assay, conditions: octanol/water; read-out: logP

First: O=C1CCCCN1
Second: O=C1CCCN1 [2-PYRROLIDONE]
The logP of the first is higher: -0.47 for the first, -0.71 for the second.

Compared with `O=C1NCC[C@@H]2CNC(=O)[C@H]12`, `O=C1CCC2CCC(=O)N12` [ROLZIRACETAM] is higher in logP: -1.95 for the first, -1.11 for the second.

With `NC(=O)CN1CCCC1=O` [PIRACETAM] the logP was -1.54.
